Results on 23 compounds are retold here after US20210253562A1, “ACYLSUFONAMIDE COMPOUNDS USEFUL AS EP3 RECEPTOR ANTAGONISTS” (Janssen Pharmaceutica NV, priority 2018, published 2021).

Like-named read-outs stand apart in the source and are kept apart here.

In test [1] the target is T1, CHO cells over-expressing the EP3 receptor (Homo sapiens, UniProt P43115).
T1 construct: expressed in transfected cells; host or cells: CHO cells
T1 sequence (P43115 1-390): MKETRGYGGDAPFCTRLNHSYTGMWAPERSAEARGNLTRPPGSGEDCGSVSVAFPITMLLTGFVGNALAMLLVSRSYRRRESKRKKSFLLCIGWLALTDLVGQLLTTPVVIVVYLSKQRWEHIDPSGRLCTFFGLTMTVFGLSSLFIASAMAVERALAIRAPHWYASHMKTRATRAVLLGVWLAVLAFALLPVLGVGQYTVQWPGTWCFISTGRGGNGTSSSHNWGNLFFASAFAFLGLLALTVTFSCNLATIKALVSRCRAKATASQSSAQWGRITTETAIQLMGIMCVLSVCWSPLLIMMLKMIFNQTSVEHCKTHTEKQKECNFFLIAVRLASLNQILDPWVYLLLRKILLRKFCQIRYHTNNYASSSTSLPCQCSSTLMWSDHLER
As to the kind of experiment: CHO cell cAMP assay; EP3 cAMP antagonist dose response (sulprostone reference), HTRF. Type of test: cell-based. The conditions noted are these: sulprostone 700 nM (EC80) and FSK 2 μM (EC70); read-out: CHO_cAMP IC50. In a few lines:
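EP3-overexpressing CHO cells pre-incubated with test compound, then stimulated 30 min at 37 °C with FSK (2 μM, EC70) plus sulprostone (700 nM, EC80); antagonism seen as restored cAMP. cAMP measured by HTRF 665/615 ratio, converted via on-plate standard curve. IC50 from Hill fit of 11-point dosing.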
In general terms: Changes in cAMP serve as a functional read-out for many G protein-coupled receptors.

Test [2] has as its target T2, EP3 membrane (EP3 receptor) (Homo sapiens, UniProt P43115).
T2 construct: purchased Millipore HTS092M
T2 sequence (P43115 1-390): T1 sequence (P43115 1-390)
As to the kind of experiment: [3H]-PGE2 binding; EP3 competition binding (SPA). In a few lines:
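SPA competition at room temperature, 2 h: EP3 membranes 2 μg/well, 2 nM [3H]-PGE2, 0.1% DMSO, in Tris/MgCl2/EDTA buffer pH 7.4. Compounds in 1:3 serial dilution; scintillation read; Ki by one-site nonlinear fit.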

With `O=C(NS(=O)(=O)c1cc(Cl)c(Cl)s1)OC/C(F)=C1\CCCc2cnn(Cc3ccc(Cl)cc3Cl)c21` [Compound #34, (Z)-2-(1-(2,4-dichlorobenzyl)-1,4,5,6-tetrahydro-7H-indazol-7-ylidene)-2-fluoroethyl ((4,5-dichlorothiophen-2-yl)sulfonyl)carbamate], in test [1], the IC50 was 11 nM. In addition, affinity in test [2] was put at a Ki of 3 nM.

For the compound `O=C(NC/C=C1\CCCc2cnn(-c3cccc4ccccc34)c21)NS(=O)(=O)c1cc(Cl)c(Cl)s1` [Compound #78, (E)-4,5-dichloro-N-((2-(1-(naphthalen-1-yl)-1,4,5,6-tetrahydro-7H-indazol-7-ylidene)ethyl)carbamoyl)thiophene-2-sulfonamide], the IC50 in test [1] worked out at 10 nM. The compound further came in with an inhibitory constant (Ki) in test [2] of 1 nM.

Regarding `O=C(NC/C(F)=C1\CCCc2cnn(Cc3ccc(Cl)cc3Cl)c21)NS(=O)(=O)c1ccc(F)c(F)c1` [Compound #156, (Z)—N-((2-(1-(2,4-dichlorobenzyl)-1,4,5,6-tetrahydro-7H-indazol-7-ylidene)-2-fluoroethyl)carbamoyl)-3,4-difluorobenzenesulfonamide], in test [1], the IC50 was 4 nM. The compound further displayed a Ki in test [2] of 2 nM.

`O=C(NC/C=C1\CC(F)(F)Cc2cnn(Cc3ccc(Cl)cc3Cl)c21)NS(=O)(=O)c1ccc(Cl)cc1` [Compound #48, (E)-4-chloro-N-((2-(1-(2,4-dichlorobenzyl)-5,5-difluoro-1,4,5,6-tetrahydro-7H-indazol-7-ylidene)ethyl)carbamoyl)benzenesulfonamide]: in test [1], the IC50 stood at 14 nM. The same compound displayed a Ki in test [2] of 5 nM.

For the compound `COc1ccccc1S(=O)(=O)NC(=O)CC/C=C1\CCCc2cnn(Cc3ccc(Cl)cc3Cl)c21` [Compound #44, (E)-4-(1-(2,4-dichlorobenzyl)-1,4,5,6-tetrahydro-7H-indazol-7-ylidene)-N-((2-methoxyphenyl)sulfonyl)butanamide], the IC50 in test [1] was found to be 177 nM. Also, the inhibitory constant (Ki) in test [2] came to 95 nM.

For the compound `O=C(NC/C=C1\CCCc2cnn(Cc3ccc(Cl)cc3Cl)c21)NS(=O)(=O)c1nc2ccccc2s1` [Compound #15, (E)-N-((2-(1-(2,4-dichlorobenzyl)-1,4,5,6-tetrahydro-7H-indazol-7-ylidene)ethyl)carbamoyl)benzo[d]thiazole-2-sulfonamide], in test [1], the 50% inhibitory concentration (IC50) came to 5 nM. This compound displayed an inhibitory constant (Ki) in test [2] of 1 nM.

With `O=C(NC/C=C1\CCCc2cnn(-c3ccc(Br)cc3)c21)NS(=O)(=O)c1cc(Cl)c(Cl)s1` [Compound #75, (E)-N-((2-(1-(4-bromophenyl)-1,4,5,6-tetrahydro-7H-indazol-7-ylidene)ethyl)carbamoyl)-4,5-dichlorothiophene-2-sulfonamide], in test [1], the IC50 is 4 nM. The compound further returned a Ki in test [2] of 1 nM.

As for `O=C(CC/C=C1\CCCc2cnn(Cc3ccc(Cl)cc3Cl)c21)NS(=O)(=O)c1cc2ccccc2s1` [Compound #31, (E)-N-(benzo[b]thiophen-2-ylsulfonyl)-4-(1-(2,4-dichlorobenzyl)-1,4,5,6-tetrahydro-7H-indazol-7-ylidene)butanamide], the 50% inhibitory concentration (IC50) in test [1] amounted to 13 nM. Further, in test [2], the Ki worked out at 7 nM.

`O=C(NC/C=C1\CCCc2cnn(-c3ncc(Br)cn3)c21)NS(=O)(=O)c1ccc(Cl)cc1` [Compound #94, (E)-N-((2-(1-(5-bromopyrimidin-2-yl)-1,4,5,6-tetrahydro-7H-indazol-7-ylidene)ethyl)carbamoyl)-4-chlorobenzenesulfonamide]: the IC50 in test [1] was found to be 11100 nM. Besides, the inhibition constant Ki in test [2] came out at 750 nM.

Consider `O=C(NC/C=C1\CCCc2cnn(-c3cccc(-c4ccc(F)cc4)c3)c21)NS(=O)(=O)c1cc(Cl)c(Cl)s1` [Compound #76, (E)-4,5-dichloro-N-((2-(1-(4′-fluoro-[1,1′-biphenyl]-3-yl)-1,4,5,6-tetrahydro-7H-indazol-7-ylidene)ethyl)carbamoyl)thiophene-2-sulfonamide], for which the IC50 in test [1] turned out to be 9 nM. The Ki in test [2] came to 2 nM.

As to `O=C(NS(=O)(=O)c1cc(Cl)c(Cl)s1)OC/C=C1\CCCc2cnn(Cc3ccc(Cl)cc3Cl)c21` [Compound #5, (E)-2-(1-(2,4-dichlorobenzyl)-1,4,5,6-tetrahydro-7H-indazol-7-ylidene)ethyl ((4,5-dichlorothiophen-2-yl)sulfonyl)carbamate], the IC50 in test [1] worked out at 5 nM. In test [2], the affinity corresponds to a Ki of 1 nM.

As to `O=C(NS(=O)(=O)c1ccc(Cl)cc1)OC/C=C1\CCCc2c(C(F)F)nn(Cc3ccc(Cl)cc3Cl)c21` [Compound #32, (E)-2-(1-(2,4-dichlorobenzyl)-3-(difluoromethyl)-1,4,5,6-tetrahydro-7H-indazol-7-ylidene)ethyl ((4-chlorophenyl)sulfonyl)carbamate], the IC50 in test [1] turned out to be 1300 nM. Besides, in test [2], the Ki was found to be 168 nM.

Turning to `O=C(NC/C(F)=C1\COCc2cnn(Cc3ccc(Cl)cc3Cl)c21)NS(=O)(=O)c1cc(Cl)c(Cl)s1` [Compound #54, (E)-4,5-dichloro-N-((2-(1-(2,4-dichlorobenzyl)-1,4-dihydropyrano[4,3-c]pyrazol-7(6H)-ylidene)-2-fluoroethyl)carbamoyl)thiophene-2-sulfonamide], the IC50 in test [1] was 24 nM. The compound further had a Ki in test [2] of 3 nM.

For `O=C(CC/C(F)=C1\COCc2cnn(Cc3ccc(Cl)cc3Cl)c21)NS(=O)(=O)c1cc(Cl)c(Cl)s1` [Compound #61, (E)-4-(1-(2,4-dichlorobenzyl)-1,4-dihydropyrano[4,3-c]pyrazol-7(6H)-ylidene)-N-((4,5-dichlorothiophen-2-yl)sulfonyl)-4-fluorobutanamide], the IC50 in test [1] is 17 nM. The compound also registered a Ki in test [2] of 7 nM.

For the compound `O=C(NC/C=C1\CCCc2cnn(Cc3ccc(Cl)cc3Cl)c21)NS(=O)(=O)c1cc2ccccc2s1` [Compound #27, (E)-N-((2-(1-(2,4-dichlorobenzyl)-1,4,5,6-tetrahydro-7H-indazol-7-ylidene)ethyl)carbamoyl)benzo[b]thiophene-2-sulfonamide], the IC50 in test [1] worked out at 13 nM. For the same compound, the Ki in test [2] came out at 5 nM.

For `O=C(CC/C=C1\CCCc2cnn(-c3cccc(-c4ccccc4)c3)c21)NS(=O)(=O)c1cc(Cl)c(Cl)s1` [Compound #52, (E)-4-(1-([1,1′-biphenyl]-3-yl)-1,4,5,6-tetrahydro-7H-indazol-7-ylidene)-N-((4,5-dichlorothiophen-2-yl)sulfonyl)butanamide], the IC50 in test [1] was 3 nM. The compound also returned a Ki in test [2] of 1 nM.

Consider `O=C(NC/C=C1\CCCc2cnn(Cc3cnc(-c4ccccc4)nc3)c21)NS(=O)(=O)c1cc(Cl)c(Cl)s1` [Compound #138, (E)-4,5-dichloro-N-((2-(1-((2-phenylpyrimidin-5-yl)methyl)-1,4,5,6-tetrahydro-7H-indazol-7-ylidene)ethyl)carbamoyl)thiophene-2-sulfonamide], for which the IC50 in test [1] was 6 nM. For the same compound, the affinity in test [2] (unit nM) corresponds to a Ki of 0.4 nM.

`O=C(NC/C(F)=C1\COCc2cnn(Cc3ccc(Cl)cc3Cl)c21)NS(=O)(=O)c1ccc(Cl)cc1` [Compound #83, (E)-4-chloro-N-((2-(1-(2,4-dichlorobenzyl)-1,4-dihydropyrano[4,3-c]pyrazol-7(6H)-ylidene)-2-fluoroethyl)carbamoyl)benzenesulfonamide]: the IC50 in test [1] was 266 nM. The affinity in test [2], expressed as Ki, was 97 nM.

Regarding `O=C(CC/C(F)=C1\CCCc2cnn(Cc3ccc(Cl)cc3Cl)c21)NS(=O)(=O)c1cc(Cl)c(Cl)s1` [Compound #56, (Z)-4-(1-(2,4-dichlorobenzyl)-1,4,5,6-tetrahydro-7H-indazol-7-ylidene)-N-((4,5-dichlorothiophen-2-yl)sulfonyl)-4-fluorobutanamide], the concentration for half-maximal inhibition (IC50) in test [1] turned out to be 4 nM. Further, in test [2], the affinity, expressed as Ki, was 1 nM.

Regarding `O=C(NC/C=C1\CCCc2cnn(Cc3ccc(Cl)cc3Cl)c21)NS(=O)(=O)c1ccc(Cl)s1` [Compound #11, (E)-5-chloro-N-((2-(1-(2,4-dichlorobenzyl)-1,4,5,6-tetrahydro-7H-indazol-7-ylidene)ethyl)carbamoyl)thiophene-2-sulfonamide], in test [1], the IC50 came out at 2 nM. The compound further returned a Ki in test [2] of 1 nM.

Turning to `O=C(NC/C=C1\CCCc2cn(Cc3ccc4ccccc4c3)nc21)NS(=O)(=O)c1cc(Cl)c(Cl)s1` [Compound #87, (E)-4,5-dichloro-N-((2-(2-(naphthalen-2-ylmethyl)-2,4,5,6-tetrahydro-7H-indazol-7-ylidene)ethyl)carbamoyl)thiophene-2-sulfonamide], the half-maximal inhibitory concentration (IC50) in test [1] worked out at 435 nM. The same compound gave a Ki in test [2] of 110 nM.

Consider `COc1ccc(F)cc1S(=O)(=O)NC(=O)NC/C(F)=C1\CCCc2cnn(-c3ccc4ccccc4c3)c21` [Compound #113, (Z)-5-fluoro-N-((2-fluoro-2-(1-(naphthalen-2-yl)-1,4,5,6-tetrahydro-7H-indazol-7-ylidene)ethyl)carbamoyl)-2-methoxybenzenesulfonamide], for which the concentration for half-maximal inhibition (IC50) in test [1] was 6900 nM. In test [2], this compound displayed a Ki of 4100 nM.

As to `COc1ccc(Cl)cc1S(=O)(=O)NC(=O)NC/C(F)=C1/CCCc2cnn(-c3ccc4ccccc4c3)c21` [Compound #106, (E)-5-chloro-N-((2-fluoro-2-(1-(naphthalen-2-yl)-1,4,5,6-tetrahydro-7H-indazol-7-ylidene)ethyl)carbamoyl)-2-methoxybenzenesulfonamide], the IC50 in test [1] was over 20000 nM. Further, in test [2], the Ki is over 10000 nM.

As usually defined, the IC50 is the concentration needed to halve the response being measured. In general, Ki refers to a measure of affinity in units of concentration, obtained from inhibition or displacement.
